Results: article PMC4704819, “Honey Bee Allatostatins Target Galanin/Somatostatin-Like Receptors and Modulate Learning: A Conserved Function?” (PLoS ONE, 2016)
Where a SMILES comes first, the peptide text is derived from it. Bridges are numbered along the chain shown (N, C = ends).

What was measured:
[1] = test system: honey bees (Apis mellifera); assay: Sucrose responsiveness assessment; assay type: in vivo; settings: 1μM; for sensitivity to sucrose vs control (GLM coefficient ± standard error) / sensitivity to water vs control (GLM coefficient ± standard error): injected 1h before test; for sensitivity to sucrose vs control (GLM coefficient ± standard error): sucrose 0.1–30%, ASTA p = 0.76, ASTC p = 0.55, ASTCC p = 0.13, N = 35, 49, 29 (Fig 10A); for sensitivity to water vs control (GLM coefficient ± standard error): ASTA p = 0.44, ASTC p = 0.30, ASTCC p = 0.22, N = 35, 49, 29
Experimental: The vehicle for allatostatins was a saline solution made of PBS containing the protease blocker, 1 mM PMSF (prepared from a 30mM stock solution in 100% ethanol, final concentration of ethanol 3.3%).
The allatostatins were injected into the head haemolymph after penetrating the median ocellus, either 1 hour before olfactory conditioning or sucrose responsiveness assessment, or immediately after olfactory conditioning. All injections were performed under a binocular microscope. A micromanipulator-controlled Hamilton syringe (Nanofil, equipped with a NF33BV2 needle, WPI) was used to inject approximately 200 nl of peptide solution. To make sure that the solution was properly injected, it was pushed out of the syringe so that a drop was visible and then the drop was put in contact with the haemolymph where it was quickly absorbed thanks to the respiratory movements of the bee. Any bee with excessive bleeding was discarded.
Since sucrose was presented diluted in water, bees were given water ad libitum immediately before testing to ensure that their responses would be elicited by sucrose only. We followed a published protocol: six sucrose solutions of increasing concentration (0.1%, 0.3%, 1%, 3%, 10% and 30%) were presented in succession to the antennae, interspersed with water stimulations to avoid sensitization. For each animal, the presence or absence of a proboscis extension response to each stimulus was recorded.
Functional data (receptor-mediated calcium, cAMP signals and binding) were plotted and regression curves were fitted using the GraphPad Prism software (San Diego, CA). The learning data were analyzed with generalized linear effects modeling (GLM) for binomial data using the R package lme4 [67]. Response levels recorded in the last conditioning trial were used to assess the effect of treatment on learning. For 1-hour memory and generalization tests, effects of allatostatin treatment were compared for each odor tested. Generalized linear mixed effects modeling (GLMM) was also used to analyze responsiveness to sucrose, with concentration and treatment as fixed factors and the bee identity and solution presented (either sucrose or water) as random factors. […] All statistics were generated in R [68].

Apime-ASTA-R = biological target: T1, Apime-ASTA-R (Apis mellifera, UniProt A0A7M7ILT1); assay: Intracellular calcium measurement, HEK293 cells expressing Apime-ASTA-R with Gαqi9 chimeric G protein; assay type: cell-based; settings: HEK293 with Gαqi9, Fig 4D
T1 sequence (A0A7M7ILT1 1-361): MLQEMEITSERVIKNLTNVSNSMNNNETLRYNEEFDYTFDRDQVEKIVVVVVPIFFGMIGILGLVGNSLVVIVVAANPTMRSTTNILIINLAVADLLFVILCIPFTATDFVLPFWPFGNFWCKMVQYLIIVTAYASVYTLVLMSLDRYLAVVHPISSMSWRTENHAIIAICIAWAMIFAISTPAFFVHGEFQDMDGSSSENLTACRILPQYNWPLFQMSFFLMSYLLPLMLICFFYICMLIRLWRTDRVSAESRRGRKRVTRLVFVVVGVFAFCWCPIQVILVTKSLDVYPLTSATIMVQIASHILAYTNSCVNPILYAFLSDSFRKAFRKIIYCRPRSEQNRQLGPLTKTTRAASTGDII
Experimental: This vector contains an ATG initiation codon in phase with a mammalian signal peptide sequence of metabotropic glutamate receptor 5 to address receptor protein to the cell membrane, with a hemagglutinin sequence (TAG HA), and MluI and HindIII restriction sites used for cloning. The coding regions of the genes of interest were PCR amplified from cDNA template. After extraction from whole brains, 1 μg of total RNA was reverse-transcribed with random primers. […] PCR reactions included: 30s at 98°C, then 30 cycles of 10s at 98°C, 30s at 60°C, 1 min at 72°C and finally, 5 minutes at 72°C. Cloning required several amplification and digestion steps to insert the full cDNA sequences in the vector.
In all cases, 2 μg of plasmid DNA encoding the Gαqi9 chimeric G protein was included to enable artificial coupling of the receptors to phospholipase C. Electroporation (250 V, 800 μF, Biorad GenePulser X-cell) was performed in a total volume of 300 μl of electroporation buffer (50 mM K2HPO4, 20 mM CH3COOK, 20 mM KOH, 26.5 mM MgSO4, pH 7.4). After electroporation, cells were resuspended in 10 ml of culture medium and split (100 μl/well) into polyornithine-coated (Sigma #P3655), black-walled, clear bottom 96-well plates (Greiner bio-one #655090) and grown for a further 48 h prior to analyzing receptor properties. All products used for cell culture were purchased from Invitrogen Life Technologies.
Cells were washed with freshly prepared 20 mM Hepes, 1 mM MgSO4, 3.3 mM Na2CO3, 1.3 mM CaCl2, 0.1% BSA, 2.5 mM probenecid in 1X Hank's balanced salt solution (Gibco #14185), pH7.4 buffer and loaded with 1 μM Ca^2+-sensitive fluorescent dye Fluo-4 AM (Invitrogen # F14202) for 1 h at 37°C. Cells were washed once and incubated with 50 μl of buffer. A plate was prepared with the various concentrations of peptides to be tested, and 50 μl of 2X concentrated-drug solution was added in each well after 20 s of recording. Fluorescence signals (excitation 485 nm, emission 525 nm) were measured by using the fluorescence microplate reader Flexstation (Molecular Devices) at sampling intervals of 1.5 s for 60 s. All represented data correspond to means ± standard deviation (SD) from experiments performed in triplicate.
This method allows detecting ligand-induced activation of the receptor by measuring the release of intracellular calcium.

Compound	responsiveness to sucrose or water / feeding, in words [1]	sensitivity to sucrose vs control (GLM coefficient ± standard error) [1]	sensitivity to water vs control (GLM coefficient ± standard error) [1]	receptor activation (calcium), in words (Apime-ASTA-R)
CC(C)[C@@H]1NC(=O)[C@H](C)NC(=O)[C@H](CC(N)=O)NC(=O)[C@H](Cc2ccccc2)NC(=O)[C@H](Cc2ccc(O)cc2)NC(=O)[C@@H](NC(=O)[C@H](CCCNC(=N)N)NC(=O)[C@H](Cc2c[nH]c3ccccc23)NC(=O)[C@H](Cc2ccc(O)cc2)NC(=O)[C@@H](NC(=O)[C@H](CCCNC(=N)N)NC(=O)CNC(=O)[C@H](CCCCN)NC(=O)[C@H](C)NC(=O)[C@H](CCC(N)=O)NC(=O)CN)C(C)C)CSSC[C@@H](C(=O)N[C@@H](Cc2ccccc2)C(=O)O)NC(=O)[C@H]([C@@H](C)O)NC1=O [Apime-ASTCC] (H-GQAKGRVYWRCYFNAVTCF-OH; disulfide 11-18; N-terminus assumed)	responded as well to 50% sucrose stimulations as control bees	1.21±0.81	0.90±0.74	not activated by either ASTC or ASTCC
CC(C)[C@@H]1NC(=O)[C@H](C)NC(=O)[C@H](CC(N)=O)NC(=O)[C@H](Cc2ccccc2)NC(=O)[C@H](C)NC(=O)[C@@H](NC(=O)[C@H](CCC(N)=O)NC(=O)[C@H](CCCCN)NC(=O)[C@H](Cc2c[nH]c3ccccc23)NC(=O)[C@H](Cc2ccc(O)cc2)NC(=O)[C@@H](N)CO)CSSC[C@@H](C(=O)N[C@@H](Cc2ccccc2)C(N)=O)NC(=O)[C@H](CO)NC1=O [Apime-ASTC] (H-SYWKQCAFNAVSCF-NH2; disulfide 6-13; N-terminus assumed)	responded as well to 50% sucrose stimulations as control bees	0.41±0.68	-0.71±0.68	not activated by either ASTC or ASTCC
